Molecules are shown by their SMILES.

The molecule `Cc1cc(OCc2ccccc2)cc(OCCCc2ccccc2)c1C(=O)O` [Example 15, 4-Benzyloxy-2-methyl-6-(3-phenyl-propoxy)-benzoic Acid] came in with a melting point of 109 to 111 °C. Next, `Cc1cc(OCc2ccccc2)cc(OCC2CCCCC2)c1C(=O)O` [Example 15a, 4-Benzyloxy-2-cyclohexylmethoxy-6-methyl-benzoic Acid]: 127 to 128 °C.

`Cc1cc(OCc2ccccc2)cc(OCCCC(C)C)c1C(=O)O` [Example 15b, 4-Benzyloxy-2-methyl-6-(4-methyl-pentyloxy)-benzoic Acid] returned a melting point of 83 to 85 °C.

As a reminder, the melting point is the temperature, or range, at which the solid turns liquid.

Values taken from patent USRE40558E1, “Therapeutic uses of di-aryl acid derivatives” (Sanofi-Aventis Deutschland GmbH, priority 1999, dated 2008).
